# System: normal human dermal fibroblasts (NHDF)
# Assay: [3H] proline incorporation into intracellular and ECM layer proteins (collagen synthesis)
# Assay type: cell-based
# Conditions: 20 micro g/ml
# Experimental: Normal human dermal fibroblasts (NHDF) were cultured in-vitro with radio labelled [^3H] proline. Collagen is a proline-rich protein. The level of radio labelled proline found in proteins, following culturing of the NHDF, is a measure of the rate of collagen synthesis. Yogurtene™ can be added to the cell culture to measure the effect of Yogurtene™ on the rate of proline uptake (collagen synthesis).
# The study investigated the increase in radio labelled proline found in: (i) soluble/secreted proteins, and (ii) intracellular and extra-cellular matrix (ECM) proteins.
# Beta-Transforming Growth Factor (β-TGF) and ascorbic acid are known collagen synthesis promoters and were used as controls in both studies.
smiles,measurement,value
O=C1O[C@H]([C@@H](O)CO)C(O)=C1O [Ascorbic acid],Proline incorporation into intracellular & ECM layer proteins,12764 Count/min

# From US20160243022A1, “Use of Fermented Milk Product for Skin Treatment” (GIVAUDAN S.A., priority 2006, published 2016)
